Patent US4520134A, “N-alkyl-4'-hydroxyacetanilides, pharmaceutical compositions comprising them and their use” (priority 1984, dated 1985)
Like-named read-outs stand apart in the source and are kept apart here.

Legend:
[1] = administered up to one hour after acute toxic amounts of acetaminophen; cited from earlier work
[2] = mouse, in vivo; cited from earlier work
[3] = administered within 16 hours after an overdose; cited from earlier work
[4] = cited from earlier work; for effect on acetaminophen hepatotoxicity: Kelleher et al.; for protection against acetaminophen toxicity: free radical scavengers; for protective effect against paracetamol: 300 mg/kg, 450 mg/kg paracetamol orally
[5] = vitamin E deficient rats; cited from earlier work
[6] = mouse, in vivo
[7] = mouse, in vivo, cited from earlier work
[8] = therapeutically recommended doses for extended periods of time; cited from earlier work
[9] = enhancement of acetaminophen hepatotoxicity (applicant's finding); settings: in vivo
cytochrome P-450 = settings: cited from earlier work
[10] = chronic use; cited from earlier work
[11] = man; cited from earlier work
[12] = hot plate test (Ankier), time to lick a back paw; format: in vivo, mice; settings: 30 mg/kg i.p.; for average time before licking a back paw: 10 minutes after dose, plate 54° C., untreated control 44 seconds
Method: Two groups of mice, six mice per group, were used in the hot plate test described by S. I. Ankier European Journal of Pharmacology 27:1-4 (1974). The control group, which was untreated, at a plate temperature of 54° C. took an average of 44 seconds to lick a back paw. The test group received a dose of N-ethyl-4'-hydroxyacetanilide (30 mg/kg) administered intraperitoneally, and when placed on the hot plate at 54° C. 10 minutes later, shown an average time of 64 seconds before licking a back paw. The analgesic activity of this compound thus increased the pain-response time by almost 50 percent.
The analgesic properties of N-isopropylacetaminophen were tested using the hot plate test described by Ankier (Eur. J. Pharmacol. 27: 1-(1974)). Two groups of mice, 6 animals/group were used. The first group was placed on the hot plate, individually, and time need to lick the back paw was recorded and found to be 44 seconds (average) at 54° C. The second group of mice each received 30 mg/kg (i.p.) N-isopropylacetaminophen and after 10 minutes placed on the hot plate at 54° C. The time required to lick the rear paw was measured and found to be 64 seconds (average), thus increased response time by 50%.

[13] = toxicity of N-isopropylacetaminophen, histopathology of liver, kidney and lung; format: in vivo, mice; settings: 100-400 mg/kg i.p.; 24 hours
Method: (§1) The toxicity of N-isopropylacetaminophen was evaluated by injecting mice with this compound at various doss from 100-400 mg/kg, i.p.) and 24 hours later, the animals were sacrificed and histopathology was determined for the liver, kidney and lung.

[14] = CNS sedation by N-isopropylacetaminophen; format: in vivo, mice
Method: as §1
The higher the dose, the longer the sedation. This was also found to be the case when mice were given the drug orally, except the dose needed to give the same sedative activity was higher (400-600 mg/kg, oral). This sedative effect of the drug lasted from 30 min. at 250 mg/kg to approximately 1.5 hr at 400 mg/kg. At the higher dose, the mice went to sleep.

[15] = 1894 paper; cited from earlier work
[16] = 1894 paper, without supporting data; cited from earlier work
[17] = 500 mg/kg i.p. in propylene glycol

C[S+](C)[O-] [DMSO, Dimethyl sulfoxide]
protection against hepatotoxic effects of acetaminophen [1]: protect mice against the hepatotoxic effects of acetaminophen
protection against CCl4 hepatotoxicity [2]: inability of DMSO to protect mice against CCl4 hepatotoxicity

CC(=O)N[C@@H](CS)C(=O)O [N-acetylcysteine]
prevention of hepatotoxicity [3]: effective in preventing hepatotoxicity

NCCS [cysteamine]
protection against acetaminophen hepatotoxicity ([4]; man and experimental animals): varying degrees of protection

Cc1c(C)c2c(c(C)c1O)CCC(C)(CCCC(C)CCCC(C)CCCC(C)C)O2 (stereo not drawn) [vitamin E, α-tocopherol]
effect on acetaminophen hepatotoxicity [4]: reduce heptatotoxicity
protection against acetaminophen hepatotoxicity ([4]; man and experimental animals): varying degrees of protection
protection against acetaminophen hepatotoxicity [5]: protects vitamin E deficient rats

CC(=O)Nc1ccc(O)cc1 [acetaminophen]
fraction of the liver necrotic (estimated) [6]: ~60%
liver histopathology [6]: severe hepatic necrosis
immediate symptomatic effects (mouse, in vivo): No immediate symptomatic effects
oral LD50 ([7]; po): about 400 mg/kg
hepatotoxicity at the oral LD50 dose [7]: severe hepatotoxicity
hepatotoxicity on chronic ingestion [8]: massive hepatic necrosis

CC1NC(C(=O)O)CS1 (centres unmarked) [2-methylthiazolidine-4-carboxylic acid]
protection against hepatotoxins ([4]; forms cysteine in the liver): can also protect against heptotoxins

Cc1cc(C(C)(C)C)c(O)c(C(C)(C)C)c1 [BHT, butylated hydroxytoluene]
effect on acetaminophen hepatotoxicity [9]: profoundly enhance its hepatotoxicity

CCO [ethanol]
induction of cytochrome P-450 (cytochrome P-450): demonstrated to induce cytochrome P-450
effect on acetaminophen-mediated hepatotoxicity [10]: markedly increased

CN(C)CCO [β-dimethylaminoethanol]
protection against acetaminophen toxicity [4]: afford protection against acetaminophen toxicity

O=C1O[C@H]([C@@H](O)CO)C(O)=C1O [ascorbic acid]
protective effect against paracetamol ([4]; nonsustained release form): no protective effect
protective effect against paracetamol ([4]; sustained release form): substantial protective effect
protection against acetaminophen hepatotoxicity ([4]; animal studies): may also provide such protection
apparent half-life of acetaminophen [11]: did not affect the apparent half-life
excretion rate of acetaminophen sulfate [11]: rapid and pronounced decrease

CC(=O)N(c1ccc(O)cc1)C(C)C [N-isopropylacetaminophen, N-isopropyl-4'-hydroxyacetanilide]
average time before licking a back paw [12]: 64 s
increase in response time ([12]; vs untreated control, 54° C.): 50%
histopathology of liver, kidney and lung [13]: no organ showed any signs of injury
duration of sedative effect ([14]; 250 mg/kg): 30 min
duration of sedative effect ([14]; 400 mg/kg): approximately 1.5 hr
CNS sedation ([14]; 250-400 mg/kg i.p.): significant CNS sedation
additional CNS effects after recovery from sedation ([14]; after recovery): no additional CNS effects were observed
sleep ([14]; higher dose): went to sleep
dose giving significant CNS sedation in all mice ([14]; i.p.): 250 to 400 mg/kg
dose needed to give the same sedative activity ([14]; oral): 400 to 600 mg/kg

CC(CN1c2ccccc2Sc2ccccc21)N(C)C (centres unmarked) [promethazine]
protection against acetaminophen toxicity [4]: afford protection against acetaminophen toxicity

selenium
protection against acetaminophen hepatotoxicity ([4]; man and experimental animals): varying degrees of protection

N[C@@H](CS)C(=O)O [cysteine]
protection against acetaminophen hepatotoxicity ([4]; man and experimental animals): varying degrees of protection

CCC1(c2ccccc2)C(=O)NC(=O)NC1=O [phenobarbital]
induction of cytochrome P-450 (cytochrome P-450): well-known cytochrome P-450 inducer

CSCC[C@H](N)C(=O)O [methionine]
protection against acetaminophen hepatotoxicity ([4]; man and experimental animals): varying degrees of protection

CCCOC(=O)c1cc(O)c(O)c(O)c1 [propyl gallate]
effect on acetaminophen hepatotoxicity [4]: reduce heptatotoxicity

N[C@@H](CCC(=O)N[C@@H](CS)C(=O)NCC(=O)O)C(=O)O [glutathione]
protection against acetaminophen toxicity [4]: afford protection against acetaminophen toxicity

COc1ccc(O)c(C(C)(C)C)c1 [BHA, butylated hydroxyanisole]
effect on acetaminophen hepatotoxicity [9]: profoundly enhance its hepatotoxicity

CCN(C(C)=O)c1ccc(O)cc1 [N-ethyl-4'-hydroxyacetanilide]
average time before licking a back paw [12]: 64 s
increase in pain-response time ([12]; vs untreated control, 54° C.): ~50%
duration of sedative effects [17]: about one-half
sedative effects [17]: sedative effects
time to ataxia of the hind legs [17]: about 15 minutes
time to drowsiness [17]: about 25 minutes
duration of sleep (600 mg/kg oral, aqueous vehicle, pH 12): 25 to 40 min
antipyretic activity [15]: no antipyretic activity
analgesic properties [16]: no analgesic properties
